US10081628B2, “Apoptosis-inducing agents for the treatment of cancer and immune and autoimmune diseases” (AbbVie Inc., priority 2013, dated 2018)
pEC50, pKi: −log10 of the molar value.

Key:
[1] = molecular target: GST-Bcl-2 (Homo sapiens, UniProt P10415); experiment: TR-FRET Bcl-2 binding assay (F-Bak peptide probe); settings: GST-Bcl-2 1 nM, F-Bak peptide probe 100 nM, Tb-anti-GST 1 nM; Wang's equation; '<' = below limit of detection
Experimental: Determination of the utility of compounds of this invention as binders to and inhibitors of anti-apoptotic Bcl-2 proteins was performed using the Time Resolved-Fluorescence Resonance Energy Transfer (TR-FRET) Assay. Tb-anti-GST antibody was purchased from Invitrogen (Catalog No. PV4216).
Representative compounds were serially diluted in dimethyl sulfoxide (DMSO) starting at 50 μM (2× starting concentration; 10% DMSO) and 10 μL were transferred into a 384-well plate. The samples are then mixed on a shaker for 1 minute and incubated for an additional 3 hours at room temperature. For each assay, the probe/antibody and protein/probe/antibody were included on each assay plate as negative and positive controls, respectively. Fluorescence was measured on the Envision (Perkin Elmer) using a 340/35 nm excitation filter and 520/525 (F-Bak peptide) and 495/510 nm (Tb-labeled […] antibody) emission filters. Dissociation constants (Ki) are shown in TABLE 2 below and were determined using Wang's equation (Wang Z.-X., An Exact Mathematical Expression For Describing Competitive Binding Of Two Different Ligands To A Protein Molecule. FEBS Lett. 1995, 360:111-4).
The samples were then mixed on a shaker for 1 minute and incubated for an additional 3 hours at room temperature. For each assay, the probe/antibody and protein/probe/antibody were included on each assay plate as negative and positive controls, respectively. Fluorescence was measured on the Envision (Perkin Elmer) using a 340/35 nm excitation filter and 520/525 (F-Bak peptide) and 495/510 nm (Tb-labeled anti-Histidine antibody) emission filters.
Inhibition constants (Ki) for compounds were determined using Wang's equation (Wang Zx. An Exact Mathematical Expression For Describing Competitive Binding Of Two Different Ligands To A Protein Molecule. FEBS Lett. 1995, 360:111-4).
The inhibition constant (Ki) is the dissociation constant of an enzyme-inhibitor complex or a protein/small molecule complex, wherein the small molecule is inhibiting binding of one protein to another protein or peptide. So a large Ki value indicates a low binding affinity and a small Ki value indicates a high binding affinity. […] The compounds are therefore expected to have utility in treatment of diseases during which anti-apoptotic Bcl-2 protein is expressed. Biological Data

[2] = system: RS4;11 cells; experiment: RS4;11 cell viability assay (CellTiter Glo); format: cell-based; settings: 10% human serum, 48 hours
Excerpt: The acute lymphoblastic leukemia (ALL) cell line RS4;11 was used as the primary human cell line to assess the cellular activity of Bcl-2 selective agents in vitro and their efficacy in vivo. Previous studies have shown by BH3 profiling, a mitochondrial assay that classifies blocks in the intrinsic apoptotic pathway, that RS4;11 cells were highly dependant on BCL-2 for survival and sensitive to the Bcl-2 family member inhibitor ABT-737 (Blood, 2008, Vol. 111, 2300-2309).
RS4;11 cells were cultured in RPMI-1640 supplemented with 2 mM L-glutamine, 10% FBS, 1 mM sodium pyruvate, 2 mM HEPES, 1% penicillin/streptomycin (Invitrogen), 4.5 g/L glucose and maintained at 37 C containing 5% CO2. To test for the cellular activity of compounds in vitro, cells were treated at 50,000 cells per well in 96-well microtiter plates in the presence of 10% human serum for 48 hours in a humidified chamber with 5% CO2. Cell cytotoxicity EC50 values were assessed using CellTiter Glo (Promega) according to the manufacturer's recommendations. The EC50 values were determined as a percentage of viable cells following treatment compared to the untreated control cells.

Sequence of GST-Bcl-2 (P10415 whole entry): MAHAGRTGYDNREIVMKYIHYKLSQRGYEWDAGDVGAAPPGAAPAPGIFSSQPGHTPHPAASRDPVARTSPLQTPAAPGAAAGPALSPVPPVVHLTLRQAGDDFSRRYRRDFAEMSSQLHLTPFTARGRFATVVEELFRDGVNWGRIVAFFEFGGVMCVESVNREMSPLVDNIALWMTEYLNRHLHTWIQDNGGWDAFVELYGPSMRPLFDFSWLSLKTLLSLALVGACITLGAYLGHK

| SMILES | pKi [1] | pEC50 [2] |
| --- | --- | --- |
| CC1(C)CCC(CN2CCN(c3ccc(C(=O)NS(=O)(=O)c4ccc(NCC5(CO)COC5)c([N+](=O)[O-])c4)c(Oc4cnc5[nH]ccc5c4)c3)CC2)=C(c2ccc(Cl)cc2)C1 [Example 11, 4-(4-{[2-(4-chlorophenyl)-4,4-dimethylcyclohex-1-en-1-yl]methyl}piperazin-1-yl)-N-{[4-({[3-(hydroxymethyl)oxetan-3-yl]methyl}amino)-3-nitrophenyl]sulfonyl}-2-(1H-pyrrolo[2,3-b]pyridin-5-yloxy)benzamide] | > 10.00 | 7.82 |
| CC1(C)CCC(CN2CCN(c3ccc(C(=O)NS(=O)(=O)c4ccc(NCC5CC(F)(F)C5)c([N+](=O)[O-])c4)c(Oc4cnc5[nH]ccc5c4)c3)CC2)=C(c2ccc(Cl)cc2)C1 [Example 28, 4-(4-{[2-(4-chlorophenyl)-4,4-dimethylcyclohex-1-en-1-yl]methyl}piperazin-1-yl)-N-[(4-{[(3,3-difluorocyclobutyl)methyl]amino}-3-nitrophenyl)sulfonyl]-2-(1H-pyrrolo[2,3-b]pyridin-5-yloxy)benzamide] | > 10.00 | 6.92 |
| CC1(C)CCC(CN2CCN(c3ccc(C(=O)NS(=O)(=O)c4ccc(NCC5CCN(S(=O)(=O)C(F)(F)F)CC5)c([N+](=O)[O-])c4)c(Oc4cnc5[nH]ccc5c4)c3)CC2)=C(c2ccc(Cl)cc2)C1 [Example 29, 4-(4-{[2-(4-chlorophenyl)-4,4-dimethylcyclohex-1-en-1-yl]methyl}piperazin-1-yl)-N-({3-nitro-4-[({1-[(trifluoromethyl)sulfonyl]piperidin-4-yl}methyl)amino]phenyl}sulfonyl)-2-(1H-pyrrolo[2,3-b]pyridin-5-yloxy)benzamide] | > 10.00 | 7.24 |
| CC1(C)CCC(CN2CCN(c3ccc(C(=O)NS(=O)(=O)c4ccc(NCC5CCN(S(C)(=O)=O)CC5)c([N+](=O)[O-])c4)c(Oc4cnc5[nH]ccc5c4)c3)CC2)=C(c2ccc(Cl)cc2)C1 [Example 30, 4-(4-{[2-(4-chlorophenyl)-4,4-dimethylcyclohex-1-en-1-yl]methyl}piperazin-1-yl)-N-{[4-({[1-(methylsulfonyl)piperidin-4-yl]methyl}amino)-3-nitrophenyl]sulfonyl}-2-(1H-pyrrolo[2,3-b]pyridin-5-yloxy)benzamide] | > 10.00 | 7.57 |
| CC1(C)CCC(CN2CCN(c3ccc(C(=O)NS(=O)(=O)c4ccc(NCC5CC[S+]([O-])CC5)c([N+](=O)[O-])c4)c(Oc4cnc5[nH]ccc5c4)c3)CC2)=C(c2ccc(Cl)cc2)C1 (stereo not shown) [Example 32, 4-(4-{[2-(4-chlorophenyl)-4,4-dimethylcyclohex-1-en-1-yl]methyl}piperazin-1-yl)-N-[(3-nitro-4-{[(1-oxidotetrahydro-2H-thiopyran-4-yl)methyl]amino}phenyl)sulfonyl]-2-(1H-pyrrolo[2,3-b]pyridin-5-yloxy)benzamide] | > 10.00 | 7.37 |
| CC1(C)CCC(CN2CCN(c3ccc(C(=O)NS(=O)(=O)c4ccc(NC[C@H]5CCOC(C)(C)C5)c([N+](=O)[O-])c4)c(Oc4cnc5[nH]ccc5c4)c3)CC2)=C(c2ccc(Cl)cc2)C1 [Example 33, 4-(4-{[2-(4-chlorophenyl)-4,4-dimethylcyclohex-1-en-1-yl]methyl}piperazin-1-yl)-N-{[4-({[(4S)-2,2-dimethyltetrahydro-2H-pyran-4-yl]methyl}amino)-3-nitrophenyl]sulfonyl}-2-(1H-pyrrolo[2,3-b]pyridin-5-yloxy)benzamide] | > 10.00 | 7.36 |
| CC1(C)CCC(CN2CCN(c3ccc(C(=O)NS(=O)(=O)c4ccc(NCC5(C)COC5)c([N+](=O)[O-])c4)c(Oc4cnc5[nH]ccc5c4)c3)CC2)=C(c2ccc(Cl)cc2)C1 [Example 38, 4-(4-{[2-(4-chlorophenyl)-4,4-dimethylcyclohex-1-en-1-yl]methyl}piperazin-1-yl)-N-[(4-{[(3-methyloxetan-3-yl)methyl]amino}-3-nitrophenyl)sulfonyl]-2-(1H-pyrrolo[2,3-b]pyridin-5-yloxy)benzamide] | > 10.00 | 7.52 |
| COC1(CNc2ccc(S(=O)(=O)NC(=O)c3ccc(N4CCN(CC5=C(c6ccc(Cl)cc6)CC(C)(C)CC5)CC4)cc3Oc3cnc4[nH]ccc4c3)cc2[N+](=O)[O-])COCCOC1 [Example 40, 4-(4-{[2-(4-chlorophenyl)-4,4-dimethylcyclohex-1-en-1-yl]methyl}piperazin-1-yl)-N-[(4-{[(6-methoxy-1,4-dioxepan-6-yl)methyl]amino}-3-nitrophenyl)sulfonyl]-2-(1H-pyrrolo[2,3-b]pyridin-5-yloxy)benzamide] | > 10.00 | 7.12 |
| CC1(C)CCC(CN2CCN(c3ccc(C(=O)NS(=O)(=O)c4ccc(NC[C@H]5C[C@H](C#N)C5)c([N+](=O)[O-])c4)c(Oc4cnc5[nH]ccc5c4)c3)CC2)=C(c2ccc(Cl)cc2)C1 [Example 41, 4-(4-{[2-(4-chlorophenyl)-4,4-dimethylcyclohex-1-en-1-yl]methyl}piperazin-1-yl)-N-[(4-{[(trans-3-cyanocyclobutyl)methyl]amino}-3-nitrophenyl)sulfonyl]-2-(1H-pyrrolo[2,3-b]pyridin-5-yloxy)benzamide] | > 10.00 | 7.33 |
| CC1(C)CCC(CN2CCN(c3ccc(C(=O)NS(=O)(=O)c4ccc(NC[C@H]5C[C@@H](C#N)C5)c([N+](=O)[O-])c4)c(Oc4cnc5[nH]ccc5c4)c3)CC2)=C(c2ccc(Cl)cc2)C1 [Example 42, 4-(4-{[2-(4-chlorophenyl)-4,4-dimethylcyclohex-1-en-1-yl]methyl}piperazin-1-yl)-N-[(4-{[(cis-3-cyanocyclobutyl)methyl]amino}-3-nitrophenyl)sulfonyl]-2-(1H-pyrrolo[2,3-b]pyridin-5-yloxy)benzamide] | > 10.00 | 7.25 |
| CC1(C)CCC(CN2CCN(c3ccc(C(=O)NS(=O)(=O)c4ccc(NCC5CCS(=O)(=O)CC5)c([N+](=O)[O-])c4)c(Oc4cnc5[nH]ccc5c4)c3)CC2)=C(c2ccc(Cl)cc2)C1 [Example 43, 4-(4-{[2-(4-chlorophenyl)-4,4-dimethylcyclohex-1-en-1-yl]methyl}piperazin-1-yl)-N-[(4-{[(1,1-dioxidotetrahydro-2H-thiopyran-4-yl)methyl]amino}-3-nitrophenyl)sulfonyl]-2-(1H-pyrrolo[2,3-b]pyridin-5-yloxy)benzamide] | > 10.00 | 7.51 |
| C[C@H]1CO[C@@H](CNc2ccc(S(=O)(=O)NC(=O)c3ccc(N4CCN(CC5=C(c6ccc(Cl)cc6)CC(C)(C)CC5)CC4)cc3Oc3cnc4[nH]ccc4c3)cc2[N+](=O)[O-])CO1 [Example 45, 4-(4-{[2-(4-chlorophenyl)-4,4-dimethylcyclohex-1-en-1-yl]methyl}piperazin-1-yl)-N-{[4-({[(2S,5S)-5-methyl-1,4-dioxan-2-yl]methyl}amino)-3-nitrophenyl]sulfonyl}-2-(1H-pyrrolo[2,3-b]pyridin-5-yloxy)benzamide] | > 10.00 | 7.72 |
| CC(=O)N1CCC(CNc2ccc(S(=O)(=O)NC(=O)c3ccc(N4CCN(CC5=C(c6ccc(Cl)cc6)CC(C)(C)CC5)CC4)cc3Oc3cnc4[nH]ccc4c3)cc2[N+](=O)[O-])CC1 [Example 47, N-[(4-{[(1-acetylpiperidin-4-yl)methyl]amino}-3-nitrophenyl)sulfonyl]-4-(4-{[2-(4-chlorophenyl)-4,4-dimethylcyclohex-1-en-1-yl]methyl}piperazin-1-yl)-2-(1H-pyrrolo[2,3-b]pyridin-5-yloxy)benzamide] | > 10.00 | 7.85 |
| CC1(C)CCC(CN2CCN(c3ccc(C(=O)NS(=O)(=O)c4ccc(NCC5COCCOC5)c([N+](=O)[O-])c4)c(Oc4cnc5[nH]ccc5c4)c3)CC2)=C(c2ccc(Cl)cc2)C1 [Example 51, 4-(4-{[2-(4-chlorophenyl)-4,4-dimethylcyclohex-1-en-1-yl]methyl}piperazin-1-yl)-N-({4-[(1,4-dioxepan-6-ylmethyl)amino]-3-nitrophenyl}sulfonyl)-2-(1H-pyrrolo[2,3-b]pyridin-5-yloxy)benzamide] | > 10.00 | 7.41 |
